Reference: patent publication US20250230193A1, “CYCLIC COMPOUND HAVING SELECTIVE KRAS INHIBITORY EFFECT ON HRAS AND NRAS” (CHUGAI SEIYAKU KABUSHIKI KAISHA, priority 2022, published 2025)
Where a SMILES comes first, the peptide text is derived from it. Bridges are numbered along the chain shown (N, C = ends). [ ]: non-standard residue; d: D form. The star is where a group is joined. hPhe(3-Cl-4-CF3) = N[C@@H](CCc1ccc(C(F)(F)F)c(Cl)c1)C(=O)O; NPrPhe(4-CF3) = CCCN[C@@H](Cc1ccc(C(F)(F)F)cc1)C(=O)O; NMeGly(cPent) = CN[C@H](C(=O)O)C1CCCC1; Pro(4,4-F2) = O=C(O)[C@@H]1CC(F)(F)CN1; NMeD = CN[C@@H](CC(=O)O)C(=O)O; NMeL = CN[C@@H](CC(C)C)C(=O)O; Morpholide = C1CN(*)CCO1; NMeA = CN[C@@H](C)C(=O)O; Aze = O=C(O)[C@@H]1CCN1; Ac4c = NC1(C(=O)O)CCC1; Sar = CNCC(=O)O

Assays:
[1] = target: GDP-bound NRAS wild-type protein (Homo sapiens, UniProt P01111); assay: Binding to NRAS by surface plasmon resonance (SPR), Single Cycle Kinetics; details: for NRAS/KRAS (ratio of KD value with respect to GDP-bound NRAS wild-type protein to KD value with respect to KRAS): class symbols
Sequence of GDP-bound NRAS wild-type protein (P01111 whole entry): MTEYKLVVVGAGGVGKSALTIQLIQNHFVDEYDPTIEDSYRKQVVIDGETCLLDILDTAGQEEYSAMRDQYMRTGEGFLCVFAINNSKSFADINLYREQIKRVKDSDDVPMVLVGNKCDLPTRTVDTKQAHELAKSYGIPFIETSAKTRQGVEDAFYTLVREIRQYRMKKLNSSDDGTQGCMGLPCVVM

[2] = target: GDP-bound HRAS wild-type protein (Homo sapiens, UniProt P01112); assay: Binding to HRAS by surface plasmon resonance (SPR), Single Cycle Kinetics; details: for HRAS/KRAS (ratio of KD value with respect to GDP-bound HRAS wild-type protein to KD value with respect to KRAS): class symbols
Sequence of GDP-bound HRAS wild-type protein (P01112 whole entry): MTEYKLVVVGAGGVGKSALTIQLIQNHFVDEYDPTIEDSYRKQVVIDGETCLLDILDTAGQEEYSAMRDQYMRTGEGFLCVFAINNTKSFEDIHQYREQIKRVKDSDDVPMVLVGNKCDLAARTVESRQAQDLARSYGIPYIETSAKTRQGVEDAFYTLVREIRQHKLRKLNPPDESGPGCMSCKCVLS

[3] = GDP-bound NRAS wild-type vs GDP-bound KRAS wild-type, SPR
[4] = GDP-bound HRAS wild-type vs GDP-bound KRAS wild-type, SPR

## CCO[C@@H]1C[C@H]2C(=O)NC3(CCC3)C(=O)N(C)[C@@H](C3CCCC3)C(=O)N(C)[C@H](C(=O)N(C)CC)CC(=O)N(C)[C@@H](CC(C)C)C(=O)N[C@@H]([C@@H](C)CC)C(=O)N(C)CC(=O)N(C)[C@H]3C/C=C\CCN(C3=O)[C@@H](Cc3ccc(C)cc3)C(=O)N(C)CC(=O)N[C@@H](CCc3ccc(C(F)(F)F)c(OC)c3)C(=O)N2C1 [PP1910]
[1]; [3]
  NRAS/KRAS (ratio of KD value for NRAS to KD value for KRAS): A (a compound having 10 or more and less than 20 is denoted as A)
[2]; [4]
  HRAS/KRAS (ratio of KD value for HRAS to KD value for KRAS): B (a compound having 3 or more and less than 10 is denoted as B)

## CCCN1C(=O)[C@@H]2CCN2C(=O)[C@H](C)N(C)C(=O)[C@H]([C@@H](C)CC)NC(=O)[C@H](CC(C)C)N(C)C(=O)C[C@@H](C(=O)N2CCOCC2)N(C)C(=O)[C@H](C2CCCC2)N(C)C(=O)C2(CCC2)NC(=O)[C@@H]2CC(F)(F)CN2C(=O)[C@H](CCc2ccc(C(F)(F)F)c(Cl)c2)NC(=O)CN(C)C(=O)[C@@H]1Cc1ccc(C(F)(F)F)cc1 [PP0208] ([NMeL]I[NMeA][Aze][NPrPhe(4-CF3)][Sar][hPhe(3-Cl-4-CF3)][Pro(4,4-F2)][Ac4c][NMeGly(cPent)][NMeD]-Morpholide; lactam N-11)
[1]; KD ratio NRAS/KRAS, SPR
  NRAS/KRAS (ratio of KD for GDP-bound NRAS wild-type to KD for KRAS): C (A compound having a KD ratio of 0.1 or more and less than 3 is denoted as C)
[2]; KD ratio HRAS/KRAS, SPR
  HRAS/KRAS (ratio of KD for GDP-bound HRAS wild-type to KD for KRAS): C (A compound having a KD ratio of 0.1 or more and less than 3 is denoted as C)

## CCO[C@@H]1C[C@H]2C(=O)NC3(CC(C)(C)C3)C(=O)N(C)[C@@H](C(CC)CC)C(=O)N(C)[C@H](C(=O)N(C)C)CC(=O)N(C)[C@@H](COC)C(=O)N[C@@H]([C@@H](C)CC)C(=O)N(C3CC3)CC(=O)N(C)[C@H]3C/C=C\CCN(C3=O)[C@@H](CC3CCC(F)(F)CC3)C(=O)N(C)CC(=O)N[C@@H](CCc3cc(F)c(C(F)(F)F)c(F)c3)C(=O)N2C1 [PP2568]
[1]; KD ratio NRAS/KRAS
  NRAS/KRAS (ratio of KD value with respect to GDP-bound NRAS wild-type protein to KD value with respect to KRAS): A (a compound having 10 or more and less than 20 is denoted as A)
[2]; KD ratio HRAS/KRAS
  HRAS/KRAS (ratio of KD value with respect to GDP-bound HRAS wild-type protein to KD value with respect to KRAS): B (a compound having 3 or more and less than 10 is denoted as B)

## CCCOC[C@H]1C(=O)N[C@@H]([C@@H](C)CC)C(=O)N(C)CC(=O)N(C)[C@H]2C/C=C\CCN(C2=O)[C@@H](Cc2ccc(C)cc2)C(=O)N(C)CC(=O)N[C@@H](CCc2ccc(C(F)(F)F)c(OC)c2)C(=O)N2C[C@H](OCC)C[C@H]2C(=O)N(C)C2(CCC2)C(=O)N(C)[C@@H](C2CCCC2)C(=O)N(C)[C@H](C(=O)N(C)C)CC(=O)N1C [PP2326]
[1]; SPR, GDP-bound NRAS wild-type vs GDP-bound KRAS wild-type
  NRAS/KRAS (ratio of KD value with respect to NRAS to KD value with respect to KRAS): A (a compound having 10 or more and less than 20 is denoted as A)
[2]; SPR, GDP-bound HRAS wild-type vs GDP-bound KRAS wild-type
  HRAS/KRAS (ratio of KD value with respect to HRAS to KD value with respect to KRAS): B (a compound having 3 or more and less than 10 is denoted as B)

## CCC[C@H]1C(=O)N[C@@H]([C@@H](C)CC)C(=O)N(C)CC(=O)N(C)[C@H]2C/C=C\CCN(C2=O)[C@@H](Cc2ccc(C(F)(F)F)cc2)C(=O)N(C)CC(=O)N[C@@H](CCc2cc(F)c(C(F)(F)F)c(F)c2)C(=O)N(CC)CC(=O)NC2(CC(C)(C)C2)C(=O)N(C)[C@@H](C2CCCC2)C(=O)N(C)[C@H](C(=O)N(C)C)CC(=O)N1C [PP1777]
[1]; [3]
  NRAS/KRAS (ratio of KD value for NRAS to KD value for KRAS): A (a compound having 10 or more and less than 20 is denoted as A)
[2]; [4]
  HRAS/KRAS (ratio of KD value for HRAS to KD value for KRAS): B (a compound having 3 or more and less than 10 is denoted as B)

## CCO[C@@H]1C[C@H]2C(=O)NC3(CCC3)C(=O)N(C)[C@@H](C3CCCC3)C(=O)N(C)[C@H](C(=O)N(C)CC)CC(=O)N(C)[C@@H](CC(C)C)C(=O)N[C@@H]([C@@H](C)CC)C(=O)N(C)CC(=O)N(C)[C@H]3C/C=C\CCN(C3=O)[C@@H](Cc3ccc(C(F)(F)F)cc3)C(=O)N(C)CC(=O)N[C@@H](CCc3cc(F)c(C(F)(F)F)c(F)c3)C(=O)N2C1 [PP1300]
[1]; SPR, KD ratio class
  NRAS/KRAS (ratio of KD value for GDP-bound NRAS wild-type protein to KD value for KRAS): A (a compound having 10 or more and less than 20 is denoted as A)
[2]; SPR, KD ratio class
  HRAS/KRAS (ratio of KD value for GDP-bound HRAS wild-type protein to KD value for KRAS): A (a compound having 10 or more and less than 20 is denoted as A)

## CCC[C@H]1C(=O)N[C@@H](CC(C)C)C(=O)N(CCOC)CC(=O)N(C)[C@H]2C/C=C\CCN(C2=O)[C@@H](Cc2ccc(C)cc2)C(=O)N(C)CC(=O)N[C@@H](CCc2ccc(C(F)(F)F)c(OC)c2)C(=O)N2C[C@H](OCC)C[C@H]2C(=O)NC2(CCC2)C(=O)N(C)[C@@H](C2CCCC2)C(=O)N(C)[C@H](C(=O)N(C)C)CC(=O)N1C [PP2542]
[1]; KD ratio NRAS/KRAS
  NRAS/KRAS (ratio of KD value with respect to GDP-bound NRAS wild-type protein to KD value with respect to KRAS): B (a compound having 3 or more and less than 10 is denoted as B)
[2]; KD ratio HRAS/KRAS
  HRAS/KRAS (ratio of KD value with respect to GDP-bound HRAS wild-type protein to KD value with respect to KRAS): B (a compound having 3 or more and less than 10 is denoted as B)
